Source: the NIST ThermoML archive (doi:10.1016/j.jct.2017.03.034)
Numbers after ± are expanded uncertainties.

Assay: molar heat capacity at constant pressure
Conditions: Liquid, Large sample (1 g) DSC

CCCCCCCCCC [decane]
molar heat capacity at constant pressure [J/K/mol]
Conditions | 120 kPa | 10170 kPa
323.15 K | 326.25 ± 5.1 | 322.98 ± 5
328.15 K | 328.24 ± 5.1 | 325.68 ± 5
333.15 K | 330.52 ± 5.1 | 328.39 ± 5.1
338.15 K | 333.22 ± 5.1 | 330.95 ± 5.1
343.15 K | 336.21 ± 5.3 | 333.65 ± 5.1
348.15 K | 339.06 ± 5.3 | 336.35 ± 5.3
353.15 K | 341.9 ± 5.3 | 339.06 ± 5.3
358.15 K | 344.46 ± 5.4 | 342.05 ± 5.3
363.15 K | 346.88 ± 5.4 | 344.61 ± 5.4
368.15 K | 349.73 ± 5.4 | 347.31 ± 5.4
373.15 K | 352.72 ± 5.4 | 350.3 ± 5.4
378.15 K | 355.56 ± 5.5 | 353 ± 5.4
383.15 K | 358.55 ± 5.5 | 355.7 ± 5.5
388.15 K | 361.68 ± 5.5 | 358.41 ± 5.5
393.15 K | 364.81 ± 5.7 | 361.4 ± 5.5
398.15 K | 367.8 ± 5.7 | 364.24 ± 5.7
403.15 K | 371.21 ± 5.7 | 367.09 ± 5.7
408.15 K | – | 370.07 ± 5.7
413.15 K | – | 372.78 ± 5.8
418.15 K | – | 375.77 ± 5.8
423.15 K | – | 379.32 ± 5.8
428.15 K | – | 382.6 ± 6

CCCCCCCCCCCC [dodecane]
molar heat capacity at constant pressure [J/K/mol]
Conditions | 100 kPa | 10180 kPa
323.15 K | 386.32 ± 6 | 385.13 ± 6
328.15 K | 389.56 ± 6 | 388.02 ± 6
333.15 K | 392.79 ± 6.1 | 391.26 ± 6.1
338.15 K | 395.86 ± 6.1 | 394.33 ± 6.1
343.15 K | 399.09 ± 6.1 | 397.39 ± 6.1
348.15 K | 402.33 ± 6.3 | 400.46 ± 6.1
353.15 K | 405.57 ± 6.3 | 403.52 ± 6.3
358.15 K | 408.8 ± 6.3 | 406.93 ± 6.3
363.15 K | 412.04 ± 6.5 | 410 ± 6.3
368.15 K | 415.28 ± 6.5 | 413.23 ± 6.5
373.15 K | 418.85 ± 6.5 | 416.13 ± 6.5
378.15 K | 422.09 ± 6.5 | 419.36 ± 6.5
383.15 K | 425.5 ± 6.6 | 422.6 ± 6.5
388.15 K | 428.73 ± 6.6 | 426.01 ± 6.6
393.15 K | 432.31 ± 6.6 | 429.07 ± 6.6
398.15 K | 435.38 ± 6.8 | 433.16 ± 6.6
403.15 K | 438.78 ± 6.8 | 435.89 ± 6.8
408.15 K | 442.53 ± 6.8 | 438.78 ± 6.8
413.15 K | 445.77 ± 7 | 441.68 ± 6.8
418.15 K | 449.34 ± 7 | 444.06 ± 6.8
423.15 K | 452.92 ± 7 | 447.64 ± 7
428.15 K | 456.5 ± 7.2 | 450.88 ± 7
433.15 K | 460.59 ± 7.2 | 454.28 ± 7
438.15 K | 465.35 ± 7.2 | 458.2 ± 7.2
443.15 K | – | 462.12 ± 7.2
448.15 K | – | 465.7 ± 7.2
453.15 K | – | 469.95 ± 7.3

CCCCCCCCCCCCCCCC [hexadecane]
molar heat capacity at constant pressure [J/K/mol]
Conditions | 130 kPa | 10090 kPa
323.15 K | 513.57 ± 7.9 | 512.21 ± 7.9
328.15 K | 517.19 ± 7.9 | 515.83 ± 7.9
333.15 K | 520.81 ± 8.2 | 519.46 ± 8.2
338.15 K | 524.66 ± 8.2 | 523.31 ± 8.2
343.15 K | 528.51 ± 8.2 | 526.48 ± 8.2
348.15 K | 532.82 ± 8.2 | 530.1 ± 8.2
353.15 K | 536.44 ± 8.4 | 534.4 ± 8.4
358.15 K | 540.74 ± 8.4 | 538.48 ± 8.4
363.15 K | 544.59 ± 8.4 | 542.1 ± 8.4
368.15 K | 548.67 ± 8.6 | 546.4 ± 8.4
373.15 K | 553.2 ± 8.6 | 550.7 ± 8.6
378.15 K | 557.27 ± 8.6 | 554.55 ± 8.6
383.15 K | 561.57 ± 8.6 | 558.86 ± 8.6
388.15 K | 565.65 ± 8.8 | 563.16 ± 8.8
393.15 K | 569.73 ± 8.8 | 567.24 ± 8.8
398.15 K | 574.03 ± 8.8 | 571.31 ± 8.8
403.15 K | 578.56 ± 9.1 | 575.61 ± 8.8
408.15 K | 583.09 ± 9.1 | 579.92 ± 9.1
413.15 K | 586.94 ± 9.1 | 584.44 ± 9.1
418.15 K | 591.46 ± 9.1 | 588.97 ± 9.1
423.15 K | 595.77 ± 9.3 | 593.05 ± 9.3
428.15 K | 599.62 ± 9.3 | 596.45 ± 9.3
433.15 K | 603.92 ± 9.3 | 600.3 ± 9.3
438.15 K | 608.67 ± 9.5 | 604.6 ± 9.3
443.15 K | 613.2 ± 9.5 | 609.35 ± 9.5
448.15 K | 617.28 ± 9.5 | 613.66 ± 9.5
453.15 K | 622.26 ± 9.7 | 617.05 ± 9.5
458.15 K | – | 621.35 ± 9.7
463.15 K | – | 625.43 ± 9.7
468.15 K | – | 630.19 ± 9.7
473.15 K | – | 634.94 ± 9.7

CCCCCC [hexane]
molar heat capacity at constant pressure [J/K/mol]
Conditions | 323.15 K | 328.15 K | 333.15 K | 338.15 K | 343.15 K | 348.15 K | 353.15 K | 358.15 K | 363.15 K | 368.15 K
140 kPa | 203.63 ± 3.2 | 205.7 ± 3.2 | 207.85 ± 3.2 | – | – | – | – | – | – | –
10090 kPa | 200.62 ± 3.1 | 202.43 ± 3.1 | 204.49 ± 3.2 | 206.13 ± 3.2 | 208.11 ± 3.2 | 210.1 ± 3.3 | 211.91 ± 3.3 | 214.15 ± 3.4 | 216.04 ± 3.4 | 218.37 ± 3.4

CCCCCCCC [octane]
molar heat capacity at constant pressure [J/K/mol]
Conditions | 100 kPa | 10130 kPa
323.15 K | 263.3 ± 4.1 | 260.9 ± 4
328.15 K | 265.7 ± 4.1 | 263.18 ± 4.1
333.15 K | 267.98 ± 4.1 | 265.58 ± 4.1
338.15 K | 270.38 ± 4.2 | 267.75 ± 4.1
343.15 K | 272.66 ± 4.2 | 270.04 ± 4.2
348.15 K | 275.18 ± 4.2 | 272.32 ± 4.2
353.15 K | 277.58 ± 4.3 | 274.49 ± 4.2
358.15 K | 280.09 ± 4.3 | 277 ± 4.3
363.15 K | 282.6 ± 4.3 | 279.17 ± 4.3
368.15 K | 285.11 ± 4.5 | 281.57 ± 4.3
373.15 K | 287.86 ± 4.5 | 283.97 ± 4.5
378.15 K | 290.37 ± 4.5 | 286.49 ± 4.5
383.15 K | 293.45 ± 4.6 | 288.88 ± 4.5
388.15 K | – | 290.94 ± 4.5
393.15 K | – | 292.88 ± 4.6
398.15 K | – | 295.97 ± 4.6

CCCCCCCCCCCCCC [tetradecane]
molar heat capacity at constant pressure [J/K/mol]
Conditions | 120 kPa | 10120 kPa
323.15 K | 449.55 ± 6.9 | 447.76 ± 6.9
328.15 K | 452.72 ± 6.9 | 451.13 ± 6.9
333.15 K | 456.09 ± 7.1 | 454.51 ± 7.1
338.15 K | 459.47 ± 7.1 | 457.88 ± 7.1
343.15 K | 463.04 ± 7.1 | 461.25 ± 7.1
348.15 K | 466.61 ± 7.1 | 464.82 ± 7.1
353.15 K | 470.38 ± 7.3 | 468.2 ± 7.3
358.15 K | 474.15 ± 7.3 | 471.97 ± 7.3
363.15 K | 477.72 ± 7.3 | 475.54 ± 7.3
368.15 K | 481.49 ± 7.5 | 478.91 ± 7.3
373.15 K | 485.26 ± 7.5 | 483.07 ± 7.5
378.15 K | 489.03 ± 7.5 | 486.45 ± 7.5
383.15 K | 492.8 ± 7.7 | 489.82 ± 7.5
388.15 K | 496.76 ± 7.7 | 493.19 ± 7.7
393.15 K | 500.14 ± 7.7 | 497.16 ± 7.7
398.15 K | 504.5 ± 7.7 | 500.73 ± 7.7
403.15 K | 508.27 ± 7.9 | 503.71 ± 7.7
408.15 K | 512.44 ± 7.9 | 508.47 ± 7.9
413.15 K | 515.81 ± 7.9 | 511.64 ± 7.9
418.15 K | 519.58 ± 8.1 | 515.41 ± 7.9
423.15 K | 523.35 ± 8.1 | 518.78 ± 8.1
428.15 K | 527.12 ± 8.1 | 522.16 ± 8.1
433.15 K | 530.89 ± 8.1 | 525.93 ± 8.1
438.15 K | 535.25 ± 8.3 | 529.3 ± 8.1
443.15 K | 539.81 ± 8.3 | 533.47 ± 8.3
448.15 K | 543.58 ± 8.3 | 537.63 ± 8.3
453.15 K | 547.95 ± 8.5 | 541.6 ± 8.3
458.15 K | 554.1 ± 8.5 | 545.77 ± 8.5
463.15 K | 559.65 ± 8.7 | 550.33 ± 8.5
468.15 K | – | 553.9 ± 8.5
473.15 K | – | 558.07 ± 8.7
478.15 K | – | 562.83 ± 8.7
483.15 K | – | 566.79 ± 8.7
